Laboratory results published in patent US10770169B2, “Method of providing a treatment to a subject based on a dynamic pathway map” (THE REGENTS OF THE UNIVERSITY OF CALIFORNIA, priority 2010, dated 2020).
Like-named read-outs stand apart in the source and are kept apart here.

Experiments:
[1] = test system: luminal, basal, claudin-low and ERBB2AMP breast cancer cell lines; assay: Associations of clinically relevant subtypes and response (non-parametric ANOVA or t-test on GI50 ranks); type: cell-based, human; details: Table 6; most sensitive subtype, FDR p<0.20
Method in brief: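 GI50 values were compared between cell-line subtype groups by non-parametric ANOVA or t-test on ranks. P-values from three test sets were combined and FDR-corrected. Significant three-group effects were followed by post-hoc comparison of each group against all others, and FDR p<0.20 counted as significant.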

CDK4 = CDK4 (Homo sapiens, UniProt P11802); details: cited from earlier work
Chain of CDK4 (P11802 whole entry, species assumed): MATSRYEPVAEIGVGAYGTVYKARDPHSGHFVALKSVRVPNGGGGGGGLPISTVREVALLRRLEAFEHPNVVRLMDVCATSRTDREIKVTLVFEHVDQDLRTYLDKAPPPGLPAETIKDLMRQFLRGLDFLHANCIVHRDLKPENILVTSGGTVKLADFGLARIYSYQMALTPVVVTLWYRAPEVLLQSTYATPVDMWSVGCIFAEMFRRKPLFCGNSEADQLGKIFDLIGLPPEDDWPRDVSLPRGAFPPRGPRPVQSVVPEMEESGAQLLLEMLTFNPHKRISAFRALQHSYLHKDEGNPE
Chain of CDK4 (P24385 whole entry partner, species assumed): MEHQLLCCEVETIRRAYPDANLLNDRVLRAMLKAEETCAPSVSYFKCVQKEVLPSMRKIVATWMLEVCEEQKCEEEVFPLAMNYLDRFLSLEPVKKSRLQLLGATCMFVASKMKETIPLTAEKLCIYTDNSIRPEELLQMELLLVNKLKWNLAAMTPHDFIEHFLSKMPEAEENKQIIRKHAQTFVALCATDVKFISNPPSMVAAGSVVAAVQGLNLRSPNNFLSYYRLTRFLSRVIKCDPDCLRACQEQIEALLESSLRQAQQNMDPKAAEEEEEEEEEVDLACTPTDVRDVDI

[2] = test system: panel of 55 breast cancer cell lines; assay: Cell growth inhibition assay (Cell Titer Glo, 72 h, 9 doses; GI50, TGI, LC50); type: cell-based, human; details: Homo sapiens, read-out: GI50 (converted)
[3] = test system: breast cancer cell lines with aberrant vs normal copy number; assay: Association of recurrent copy number changes and response (t-test on GI50); type: cell-based, human; details: FDR p<0.2
Method in brief: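 A t-test compared GI50 between cell lines with high amplification at 8q24 (MYC), 11q13 (CCND1) or 20q13 (STK15/AURKA) and lines with low or no amplification, grouped together. Lines whose GI50 equalled the maximum concentration tested were excluded. Compounds with any group under five samples were also excluded.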

O=C1c2ccccc2-[n+]2ccc3c([nH]c4ccccc43)c21 [Fascaplysin]
Subtype specificity [1]: Luminal
inhibition of CDK4 (CDK4): inhibited CDK4
GI50 ([2]; 600MPE cell line, censored GI50 values): 288 nM
GI50 ([2]; AU565, AU565 cell line, censored GI50 values): 120 nM
GI50 ([2]; AU565, cell line AU565): 120 nM
GI50 ([2]; BT-20, BT20 cell line, censored GI50 values): 309 nM
GI50 ([2]; BT-20, cell line BT20): 309 nM
GI50 ([2]; BT-474, BT474 cell line, censored GI50 values): 191 nM
GI50 ([2]; BT-474, cell line BT474): 191 nM
GI50 ([2]; BT-483, BT483 cell line, censored GI50 values): 66.1 nM
GI50 ([2]; BT-483, cell line BT483): 66.1 nM
GI50 ([2]; BT-549, BT549 cell line, censored GI50 values): 513 nM
GI50 ([2]; BT-549, cell line BT549): 513 nM
GI50 ([2]; CAMA-1, CAMA1 cell line, censored GI50 values): 245 nM
GI50 ([2]; CAMA-1, cell line CAMA1): 245 nM
GI50 ([2]; HCC38, HCC38 cell line, censored GI50 values): 275 nM
GI50 ([2]; HCC38, cell line HCC38): 275 nM
GI50 ([2]; HCC70, HCC70 cell line, censored GI50 values): 126 nM
GI50 ([2]; HCC70, cell line HCC70): 126 nM
GI50 ([2]; HCC202, HCC202 cell line, censored GI50 values): 42.7 nM
GI50 ([2]; HCC202, cell line HCC202): 42.7 nM
GI50 ([2]; HCC1143, HCC1143 cell line, censored GI50 values): 275 nM
GI50 ([2]; HCC1143, cell line HCC1143): 275 nM
GI50 ([2]; HCC1187, HCC1187 cell line, censored GI50 values): 15.5 nM
GI50 ([2]; HCC1187, cell line HCC1187): 15.5 nM
GI50 ([2]; HCC1395, HCC1395 cell line, censored GI50 values): 324 nM
GI50 ([2]; HCC1395, cell line HCC1395): 324 nM
GI50 ([2]; HCC1419, HCC1419 cell line, censored GI50 values): 263 nM
GI50 ([2]; HCC1419, cell line HCC1419): 263 nM
GI50 ([2]; HCC1428, HCC1428 cell line, censored GI50 values): 37.2 nM
GI50 ([2]; HCC1428, cell line HCC1428): 37.2 nM
GI50 ([2]; HCC1500, HCC1500 cell line, censored GI50 values): 224 nM
GI50 ([2]; HCC1500, cell line HCC1500): 224 nM
GI50 ([2]; HCC1806, HCC1806 cell line, censored GI50 values): 257 nM
GI50 ([2]; HCC1806, cell line HCC1806): 257 nM
GI50 ([2]; HCC1937, HCC1937 cell line, censored GI50 values): 389 nM
GI50 ([2]; HCC1937, cell line HCC1937): 389 nM
GI50 ([2]; HCC1954, HCC1954 cell line, censored GI50 values): 269 nM
GI50 ([2]; HCC1954, cell line HCC1954): 269 nM
GI50 ([2]; HCC2185 cell line, censored GI50 values): 126 nM
GI50 ([2]; HCC3153 cell line, censored GI50 values): 347 nM
GI50 ([2]; LY2 cell line, censored GI50 values): 7.94 nM
GI50 ([2]; MCF7, MCF7 cell line, censored GI50 values): 191 nM
GI50 ([2]; MCF7, cell line MCF7): 191 nM
GI50 ([2]; MDA-MB-134-VI, MDAMB134VI cell line, censored GI50 values): 224 nM
GI50 ([2]; MDA-MB-157, MDAMB157 cell line, censored GI50 values): 170 nM
GI50 ([2]; MDA-MB-157, cell line MDAMB157): 170 nM
GI50 ([2]; MDA-MB-175-VII, MDAMB175VII cell line, censored GI50 values): 191 nM
GI50 ([2]; MDA-MB-231, MDAMB231 cell line, censored GI50 values): 251 nM
GI50 ([2]; MDA-MB-231, cell line MDAMB231): 251 nM
GI50 ([2]; MDA-MB-361, MDAMB361 cell line, censored GI50 values): 81.3 nM
GI50 ([2]; MDA-MB-361, cell line MDAMB361): 81.3 nM
GI50 ([2]; MDA-MB-415, MDAMB415 cell line, censored GI50 values): 60.3 nM
GI50 ([2]; MDA-MB-415, cell line MDAMB415): 60.3 nM
GI50 ([2]; MDA-MB-436, MDAMB436 cell line, censored GI50 values): 417 nM
GI50 ([2]; MDA-MB-436, cell line MDAMB436): 417 nM
GI50 ([2]; MDA-MB-453, MDAMB453 cell line, censored GI50 values): 87.1 nM
GI50 ([2]; MDA-MB-453, cell line MDAMB453): 87.1 nM
GI50 ([2]; MDA-MB-468, MDAMB468 cell line, censored GI50 values): 77.6 nM
GI50 ([2]; MDA-MB-468, cell line MDAMB468): 77.6 nM
GI50 ([2]; SK-BR-3, SKBR3 cell line, censored GI50 values): 224 nM
GI50 ([2]; SK-BR-3, cell line SKBR3): 224 nM
GI50 ([2]; SUM52PE, SUM52PE cell line, censored GI50 values): 182 nM
GI50 ([2]; SUM52PE, cell line SUM52PE): 182 nM
GI50 ([2]; SUM149PT, SUM149PT cell line, censored GI50 values): 398 nM
GI50 ([2]; SUM149PT, cell line SUM149PT): 398 nM
GI50 ([2]; SUM185PE, SUM185PE cell line, censored GI50 values): 55 nM
GI50 ([2]; SUM185PE, cell line SUM185PE): 55 nM
GI50 ([2]; SUM225CWN, SUM225CWN cell line, censored GI50 values): 67.6 nM
GI50 ([2]; SUM225CWN, cell line SUM225CWN): 67.6 nM
GI50 ([2]; SUM1315MO2, SUM1315MO2 cell line, censored GI50 values): 417 nM
GI50 ([2]; SUM-159-PT, SUM159PT cell line, censored GI50 values): 427 nM
GI50 ([2]; SUM-159-PT, cell line SUM159PT): 427 nM
GI50 ([2]; T47D, T47D cell line, censored GI50 values): 457 nM
GI50 ([2]; T47D, cell line T47D): 457 nM
GI50 ([2]; UACC-893, UACC893 cell line, censored GI50 values): 186 nM
GI50 ([2]; UACC-893, cell line UACC893): 186 nM
GI50 ([2]; ZR-75-1, ZR751 cell line, censored GI50 values): 355 nM
GI50 ([2]; ZR-75-1, cell line ZR751): 355 nM
GI50 ([2]; ZR-75B, ZR75B cell line, censored GI50 values): 407 nM
GI50 ([2]; ZR-75B, cell line ZR75B): 407 nM
GI50 ([2]; cell line 600MPE): 288 nM
GI50 ([2]; cell line HCC2185): 126 nM
GI50 ([2]; cell line HCC3153): 347 nM
GI50 ([2]; cell line LY2): 7.94 nM
GI50 ([2]; cell line MDAMB134V): 224 nM
GI50 ([2]; cell line MDAMB175V): 191 nM
GI50 ([2]; cell line SUM1315MO): 417 nM
association of response with homozygous deletion at 9p21 (CDKN2A) [3]: associated with response
